# Columns and labels:
# [1] = Mechanical stability: dry grinding, wet grinding, tableting (XRPD); type: physicochemical
# Description: Dry grinding: approximately 10 mg of the starting sample was ground for 3 minutes in a mortar, and then subjected to XRPD testing.
# Wet grinding: approximately 10 mg of the starting sample was ground with 1 to 2 drops of solvent for 3 minutes in a mortar, and then subjected to XRPD testing.
# Tableting experiment: approximately 10 mg of the starting sample was compressed at 20 MPa for 3 minutes, and then subjected to XRPD testing.
# [2] = Hygroscopicity by dynamic vapor sorption (DVS); type: physicochemical
# Description: Samples are analyzed for hygroscopicity using Intrinsic DVS ([…], UK). Approximately 10 to 30 mg of sample is used for testing. The testing chamber is controlled at a temperature of 25 ± 1°C with the specific testing parameters shown below: […]
# [3] = Physicochemical stability of crystal forms (HPLC purity, XRPD)
# [4] = Solubility of crystal forms in buffers, biorelevant media and water (HPLC, XRPD of residual solid); type: physicochemical; details: for pH (24 h): 5 mg/mL suspension stirred at 37°C, pH of the solution at 24 h; for Solubility at 37°C (mg/mL) 2 h: 120 min
# Description: The solubility of the two crystal forms at 2 hours and 24 hours and the pH of the solution at 24 hours were tested. The solid was filtered, and the resulting solid was tested for XRPD.
# [5] = Dry grinding, 3 minutes in a mortar, no solvent
# [6] = Tableting, 20 MPa for 3 minutes, solvent EA
# [7] = Wet grinding, solvent EtOH, 3 minutes in a mortar
# [8] = Wet grinding, solvent Water, 3 minutes in a mortar
smiles,measurement,setting,value
"COc1cc2nn(C3CC4(CCN(C(=O)C5CCN(c6ccc7c(c6)C(=O)N(C6CCC(=O)NC6=O)C7=O)CC5)CC4)C3)cc2cc1NC(=O)c1cccc(C(F)(F)F)n1 (single isomer, unassigned) [crystal form A]",Solid color,[1]; [5],"Slightly deepened, yellow"
same,XRPD results,[1]; [5],Crystal form A (low degree of crystallinity)
same,Solid color,[1]; [6],"Slightly deepened, yellow"
same,XRPD results,[1]; [6],Crystal form A
same,Solid color,[1]; [7],"Slightly deepened, yellow"
same,XRPD results,[1]; [7],Crystal form A
same,Solid color,[1]; [8],"Slightly deepened, yellow"
same,XRPD results,[1]; [8],Crystal form A
same,degree of crystallinity of the solid,[1]; after dry grinding,reduction in the degree of crystallinity
same,crystal form of the solid (XRPD),"[1]; after dry grinding, wet grinding, and tableting",no change in the crystal form
same,Solid color,"[1]; after grinding and tableting experiments, versus starting sample",slightly darker
same,degree of crystallinity of the solid,[1]; after wet grinding and tableting,almost no change in the degree of crystallinity
same,hygroscopic weight gain,"[2]; 80% RH, 25°C",2.213%
same,hygroscopicity evaluation,"[2]; DVS, based on weight gain at 80% RH",hygroscopic
same,crystal form after DVS testing,[2]; after DVS testing,no change in the crystal form
same,Purity (%),"[3]; 25°C/60% RH, open, 1 week",96.38%
same,XRPD,"[3]; 25°C/60% RH, open, 1 week",Unchanged
same,Purity (%),"[3]; 40°C/75% RH, open, 1 week",96.39%
same,XRPD,"[3]; 40°C/75% RH, open, 1 week",Unchanged
same,Purity (%),"[3]; 60°C, closed, 1 week",96.40%
same,XRPD,"[3]; 60°C, closed, 1 week",Unchanged
same,Purity (%),[3]; Initial,96.41%
same,XRPD,[3]; Initial,Crystal form A
same,Purity (%),"[3]; Light, closed, 10 days",96.41%
same,XRPD,"[3]; Light, closed, 10 days",Unchanged
same,Purity (%),"[3]; Light, control, 10 days",96.42%
same,XRPD,"[3]; Light, control, 10 days",Unchanged
same,change in the crystal form after stability testing,[3]; all stability conditions,no change in the crystal form
same,degradation,"[3]; all stability conditions (60°C, 25°C/60% RH, 40°C/75% RH 1 week; light 10 days)",no significant degradation
same,pH (24 h),[4]; FaSSIF,6.570
same,Solubility at 37°C (mg/mL) 2 h,"[4]; FaSSIF, 37°C, 2 h",0.00461 mg/mL
same,Solubility at 37°C (mg/mL) 24 h,"[4]; FaSSIF, 37°C, 1440 min",0.00285 mg/mL
same,solubility,"[4]; FeSSIF, stirring at 37°C for 24 hours, 1440 min",approximately 0.004 mg/mL
same,pH (24 h),[4]; FeSSIF,5.032
same,Solubility at 37°C (mg/mL) 2 h,"[4]; FeSSIF, 37°C, 2 h",0.00391 mg/mL
same,Solubility at 37°C (mg/mL) 24 h,"[4]; FeSSIF, 37°C, 1440 min",0.00414 mg/mL
same,pH (24 h),[4]; SGF,1.225
same,pH (24 h),[4]; Water,7.311
same,Solubility at 37°C (mg/mL) 24 h,"[4]; Water, 37°C, 1440 min",0.00075 mg/mL
same,Crystal form,[4]; XRPD of residual solid after stirring in FaSSIF at 37°C for 24 hours,Crystal form A
same,Crystal form,[4]; XRPD of residual solid after stirring in FeSSIF at 37°C for 24 hours,Crystal form A
same,Crystal form,[4]; XRPD of residual solid after stirring in SGF at 37°C for 24 hours,Crystal form A
same,Crystal form,[4]; XRPD of residual solid after stirring in Water at 37°C for 24 hours,Crystal form A
same,Crystal form,[4]; XRPD of residual solid after stirring in pH 1.2 buffer at 37°C for 24 hours,Crystal form A
same,Crystal form,[4]; XRPD of residual solid after stirring in pH 3.0 buffer at 37°C for 24 hours,Crystal form A
same,Crystal form,[4]; XRPD of residual solid after stirring in pH 4.5 buffer at 37°C for 24 hours,Crystal form A
same,Crystal form,[4]; XRPD of residual solid after stirring in pH 6.8 buffer at 37°C for 24 hours,Crystal form A
same,Crystal form,[4]; XRPD of residual solid after stirring in pH 7.4 buffer at 37°C for 24 hours,Crystal form A
same,solubility at 24 h,"[4]; fassif, stirring at 37°C for 24 hours, read-out: solubility",~4 µg/mL
same,pH (24 h),[4]; pH 1.2 buffer,1.214
same,pH (24 h),[4]; pH 3.0 buffer,3.078
same,pH (24 h),[4]; pH 4.5 buffer,4.584
same,Solubility at 37°C (mg/mL) 2 h,"[4]; pH 4.5 buffer, 37°C, 2 h",0.00026 mg/mL
same,pH (24 h),[4]; pH 6.8 buffer,6.833
same,pH (24 h),[4]; pH 7.4 buffer,7.428
same,solubility at 2 h,"[4]; water, 37°C, 2 h, read-out: Solubility at 37°C (mg/mL) 2 h",0.00052 mg/mL

# — patent publication EP4796536A1, “CRYSTAL FORMS OF COMPOUND HAVING FUSED FIVE- AND SIX-MEMBERED RINGS, PREPARATION METHOD THEREFOR, AND USE THEREOF” (Hangzhou Polymed Biopharmaceuticals, Inc., priority 2023, dated 2025)
